Assay results taken from patent publication US11773078B2, “Furin inhibitors” (Glaxosmithkline Intellectual Property Development Limited, priority 2018, dated 2023).
Counter-ions that a name gives are not always drawn.

Experiments:
[1] = biological target: T1, furin (endogenous protease) in U20S cells (Homo sapiens, UniProt P09958); assay: Furin cell-based assay (image-based, Golgi-targeted GFP with BMP10 furin/PCSK cleavage site); conditions: 24-hour incubation, read-out: furin golgi cell pXC50 (converted);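 note: Read-out is mean GFP fluorescence of Golgi puncta per cell by high-content imaging, retained when furin inhibited, over an eleven-point 0.00017–10 µM series, four-parameter fit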
T1 construct: the endogenous protease cleaves GFP; endogenous in cells; host or cells: U2OS cells transduced with a BacMam reporter
T1 sequence (P09958 108-794): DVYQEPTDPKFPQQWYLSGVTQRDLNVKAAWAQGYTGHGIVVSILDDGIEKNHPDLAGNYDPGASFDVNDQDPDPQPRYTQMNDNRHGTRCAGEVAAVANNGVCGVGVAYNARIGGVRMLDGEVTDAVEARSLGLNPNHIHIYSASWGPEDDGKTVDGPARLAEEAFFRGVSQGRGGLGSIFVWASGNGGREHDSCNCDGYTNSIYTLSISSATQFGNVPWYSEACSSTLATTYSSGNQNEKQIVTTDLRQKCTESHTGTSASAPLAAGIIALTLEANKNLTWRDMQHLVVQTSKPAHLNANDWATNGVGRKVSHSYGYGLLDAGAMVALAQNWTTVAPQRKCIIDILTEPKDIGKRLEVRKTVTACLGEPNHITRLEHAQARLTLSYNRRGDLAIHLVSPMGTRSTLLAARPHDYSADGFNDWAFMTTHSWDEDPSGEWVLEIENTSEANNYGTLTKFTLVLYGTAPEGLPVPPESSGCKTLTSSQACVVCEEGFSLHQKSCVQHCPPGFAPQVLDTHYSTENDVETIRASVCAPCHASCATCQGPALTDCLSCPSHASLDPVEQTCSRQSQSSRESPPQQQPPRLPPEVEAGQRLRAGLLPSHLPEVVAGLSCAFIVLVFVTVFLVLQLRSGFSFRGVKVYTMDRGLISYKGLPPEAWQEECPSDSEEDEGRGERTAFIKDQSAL

[2] = biological target: T2, Furin (108-574-Tev-Flag-His) enzyme (Homo sapiens, UniProt P09958); assay: Furin enzyme assay; format: biochemical; conditions: for IC50: read-out: furin enzyme pIC50 (converted)
T2 construct: Furin (108-574-Tev-Flag-His) enzyme was expressed and purified from CHO cells; TEV cleavage site (C); FLAG (C); His (C); made in house; host or cells: CHO cells
T2 sequence (P09958 108-574): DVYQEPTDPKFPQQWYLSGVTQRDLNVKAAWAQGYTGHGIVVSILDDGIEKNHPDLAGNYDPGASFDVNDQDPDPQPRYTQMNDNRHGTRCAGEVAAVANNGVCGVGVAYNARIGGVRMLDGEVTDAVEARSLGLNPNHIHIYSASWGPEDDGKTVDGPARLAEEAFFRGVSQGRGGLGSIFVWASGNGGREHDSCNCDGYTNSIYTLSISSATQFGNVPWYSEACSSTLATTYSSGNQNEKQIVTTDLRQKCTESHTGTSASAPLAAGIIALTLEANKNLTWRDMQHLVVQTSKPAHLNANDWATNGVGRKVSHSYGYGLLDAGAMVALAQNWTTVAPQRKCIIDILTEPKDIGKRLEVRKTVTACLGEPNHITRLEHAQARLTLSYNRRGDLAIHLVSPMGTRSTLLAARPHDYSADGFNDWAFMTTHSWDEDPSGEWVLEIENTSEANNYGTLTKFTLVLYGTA
In short: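 CHO-expressed, purified furin construct at 40 pM in 100 mM HEPES pH7.5, 1 mM CaCl2, 0.005% Triton X-100. Eleven-point 1:3 series, 0.00017–10 μM final, incubated 2 h at room temperature and read on Envision. pXC50 from four-parameter fit.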

SMILES | EC50 [1] [nM] | furin enzyme pIC50 [2] | IC50 [2] [nM]
CNCc1cc(Oc2ccc(N3CCNC(C)(C)C3)nc2)cc(-c2cc(Cl)cc(Cl)c2)c1 [Example 102, 1-(3′,5′-Dichloro-5-((6-(3,3-dimethylpiperazin-1-yl)pyridin-3-yl)oxy)-[1,1′-biphenyl]-3-yl)-N-methylmethanamine, 3 hydrochloride] | 15.8 | 9.2 | –
CNCc1cc(Oc2ccc(N3CCCNCC3)nc2)cc(-c2cc(Cl)cc(Cl)c2)c1 [Example 103] | 63.1 | 8.9 | –
CNCc1cc(Oc2ccc(N3CCN(C)CC3)nc2)cc(-c2cc(Cl)cc(Cl)c2)c1 [Example 104, 1-(3′,5′-dichloro-5-((6-(4-methylpiperazin-1-yl)pyridin-3-yl)oxy)-[1,1′-biphenyl]-3-yl)-N-methylmethanamine] | 25.1 | 8.5 | –
CC(=O)NCC1CCN(Cc2cc(Oc3ccc(NCC(C)(C)N)nc3)cc(-c3cc(Cl)cc(Cl)c3)c2)CC1 [Example 105, N-((1-((5-((6-((2-Amino-2-methylpropyl)amino)pyridin-3-yl)oxy)-3′,5′-dichloro-[1,1′-biphenyl]-3-yl)methyl)piperidin-4-yl)methyl)acetamide, 3 hydrochloride] | 126 | 9 | –
CC(=O)NCC1CCN(Cc2cc(Oc3ccc(N4CC[C@@H](N)[C@@H](F)C4)nc3)cc(-c3cc(Cl)cc(Cl)c3)c2)CC1 [Example 106, N-((1-((5-((6-((r/3)-4-Amino-3-fluoropiperidin-1-yl)pyridin-3-yl)oxy)-3′,5′-dichloro-[1,1′-biphenyl]-3-yl)methyl)piperidin-4-yl)methyl)acetamide, 3 hydrochloride] | 3.16 | 9.4 | –
CC(=O)NCC1CCN(Cc2cc(Oc3ccc(N4CCN5C(=O)NCC5C4)nc3)cc(-c3cc(Cl)cc(Cl)c3)c2)CC1 (stereo not shown) [Example 107, N-((1-((3′,5′-Dichloro-5-((6-(3-oxohexahydroimidazo[1,5-a]pyrazin-7(1H)-yl)pyridin-3-yl)oxy)-[1,1′-biphenyl]-3-yl)methyl)piperidin-4-yl)methyl)acetamide, 2 hydrochloride] | 5.01 | 9 | –
CNCc1cc(Oc2ccc(N3CCC(N)CC3)nc2)nc(-c2cc(C)cc(Cl)c2)c1 [Example 108, 1-(5-((6-(3-Chloro-5-methylphenyl)-4-((methylamino)methyl)pyridin-2-yl)oxy)pyridin-2-yl)piperidin-4-amine, 4 hydrochloride] | > 50100 | 7.5 | –
CC(=O)NCC1CCN(Cc2cc(Oc3cnc(N4CCNCC4)cn3)nc(-c3cc(Cl)cc(Cl)c3)c2)CC1 [Example 109, N-((1-((2-(3,5-Dichlorophenyl)-6-((5-(piperazin-1-yl)pyrazin-2-yl)oxy)pyridin-4-yl)methyl)piperidin-4-yl)methyl)acetamide] | 15.8 | 9.6 | –
CC(=O)NCC1CCN(Cc2cc(Oc3cnc(N4CCN(C)CC4)cn3)nc(-c3cc(Cl)cc(Cl)c3)c2)CC1 [Example 110, N-((1-((2-(3,5-Dichlorophenyl)-6-((5-(4-methylpiperazin-1-yl)pyrazin-2-yl)oxy)pyridin-4-yl)methyl)piperidin-4-yl)methyl)acetamide] | 2.51 | 10.3 | –
CC(=O)NCC1CCN(Cc2cc(Oc3cnc(N4CCN(CCC(=O)O)CC4)cn3)nc(-c3cc(Cl)cc(Cl)c3)c2)CC1 [Example 111, 3-(4-(5-((4-((4-(Acetamidomethyl)piperidin-1-yl)methyl)-6-(3,5-dichlorophenyl)pyridin-2-yl)oxy)pyrazin-2-yl)piperazin-1-yl)propanoic acid] | 158 | 9.7 | –
O=C(O)CC1CCN(Cc2cc(Oc3cnc(N4CCNCC4)cn3)nc(-c3cc(Cl)cc(Cl)c3)c2)CC1 [Example 112, 2-(1-((2-(3,5-Dichlorophenyl)-6-((5-(piperazin-1-yl)pyrazin-2-yl)oxy)pyridin-4-yl)methyl)piperidin-4-yl)acetic acid] | 126 | 8.9 | –
CC(=O)NCC1CCN(Cc2cc(Oc3cnc(N4CCN(CCCO)CC4)nc3)cc(-c3cc(Cl)cc(Cl)c3)c2)CC1 [Example 113, N-((1-((3′,5′-Dichloro-5-((2-(4-(3-hydroxypropyl)piperazin-1-yl)pyrimidin-5-yl)oxy)-[1,1′-biphenyl]-3-yl)methyl)piperidin-4-yl)methyl)acetamide] | 12.6 | – | < 0.158
O=C(O)CCC1CCN(Cc2cc(Oc3cnc(N4CCN(CCO)CC4)nc3)cc(-c3cc(Cl)cc(Cl)c3)c2)CC1 [Example 114, 3-(1-((3′,5′-Dichloro-5-((2-(4-(2-hydroxyethyl)piperazin-1-yl)pyrimidin-5-yl)oxy)-[1,1′-biphenyl]-3-yl)methyl)piperidin-4-yl)propanoic acid] | 20 | – | < 0.158
CC(=O)NCC1CCN(Cc2cc(Oc3ccc(N4CCN(CCC(=O)O)CC4)nc3)nc(-c3cc(F)cc(Cl)c3)c2)CC1 [Example 115, 3-(4-(5-((4-((4-(Acetamidomethyl)piperidin-1-yl)methyl)-6-(3-chloro-5-fluorophenyl)pyridin-2-yl)oxy)pyridin-2-yl)piperazin-1-yl)propanoic acid] | 251 | 8.3 | –
CC(=O)NCC1CCN(Cc2cc(Oc3ccc(N4CCN(CCC(=O)O)CC4)nc3)nc(-c3cc(F)cc(Br)c3)c2)CC1 [Example 116, 3-(4-(5-((4-((4-(Acetamidomethyl)piperidin-1-yl)methyl)-6-(3-bromo-5-fluorophenyl)pyridin-2-yl)oxy)pyridin-2-yl)piperazin-1-yl)propanoic acid] | 200 | 10.4 | –
CN1CCN(c2ncc(Oc3cc(CN4CCC(CC(=O)O)CC4)cc(-c4cc(Cl)cc(Cl)c4)c3)cn2)CC1 [Example 117, 2-(1-((3′,5′-Dichloro-5-((2-(4-methylpiperazin-1-yl)pyrimidin-5-yl)oxy)-[1,1′-biphenyl]-3-yl)methyl)piperidin-4-yl)acetic acid] | 31.6 | 9.2 | –
CC(=O)NCC1CCN(Cc2cc(Oc3cnc(N4CCCNCC4)nc3)nc(-c3cc(Cl)cc(Cl)c3)c2)CC1 [Example 118, N-((1-((2-((2-(1,4-Diazepan-1-yl)pyrimidin-5-yl)oxy)-6-(3,5-dichlorophenyl)pyridin-4-yl)methyl)piperidin-4-yl)methyl)acetamide] | 15.8 | 8.7 | –
CC(=O)NCC1CCN(Cc2cc(Oc3cnc(N4CCC(N)CC4)nc3)nc(-c3cc(Cl)cc(Cl)c3)c2)CC1 [Example 119, N-((1-((2-((2-(4-aminopiperidin-1-yl)pyrimidin-5-yl)oxy)-6-(3,5-dichlorophenyl)pyridin-4-yl)methyl)piperidin-4-yl)methyl)acetamide] | 25.1 | 9.3 | –
C[N+](C)([O-])CCC1CCN(Cc2cc(Oc3ccc(N4CCNCC4)nc3)nc(-c3cc(Cl)cc(Cl)c3)c2)CC1 [Example 120, 2-(1-((2-(3,5-dichlorophenyl)-6-((6-(piperazin-1-yl)pyridin-3-yl)oxy)pyridin-4-yl)methyl)piperidin-4-yl)-N,N-dimethylethanamine oxide] | 15.8 | – | 2
CC(=O)NCC1CCN(Cc2cc(Oc3cnc(N4CCNCC4)c(F)c3)nc(-c3cc(Cl)cc(Cl)c3)c2)CC1 [Example 121, N-((1-((2-(3,5-dichlorophenyl)-6-((5-fluoro-6-(piperazin-1-yl)pyridin-3-yl)oxy)pyridin-4-yl)methyl)piperidin-4-yl)methyl)acetamide] | 31.6 | 8.6 | –
O=C(O)COC1CCN(Cc2cc(Oc3cnc(N4CCNCC4)nc3)nc(-c3cc(Cl)cc(Cl)c3)c2)CC1 [Example 122] | 79.4 | 8.5 | –
O=C(O)CC1CCN(Cc2cc(Oc3cnc(N4CCNCC(O)C4)nc3)nc(-c3cc(Cl)cc(Cl)c3)c2)CC1 (stereo not shown) [Example 123, 2-(1-((2-(3,5-dichlorophenyl)-6-((2-(6-hydroxy-1,4-diazepan-1-yl)pyrimidin-5-yl)oxy)pyridin-4-yl)methyl)piperidin-4-yl)acetic acid] | 100 | 8.7 | –
NC1(CCO)CCN(c2ncc(Oc3cc(CN4CCC(CC(=O)O)CC4)cc(-c4cc(Cl)cc(Cl)c4)n3)cn2)CC1 [Example 124, 2-(1-((2-((2-(4-amino-4-(2-hydroxyethyl)piperidin-1-yl)pyrimidin-5-yl)oxy)-6-(3,5-dichlorophenyl)pyridin-4-yl)methyl)piperidin-4-yl)acetic acid] | 20 | 8.8 | –
CP(C)(=O)CC1CCN(Cc2cc(Oc3cnc(N4CCNCC4)nc3)nc(-c3cc(Cl)cc(Cl)c3)c2)CC1 [Example 125] | 50.1 | 8 | –
CC(CC(=O)O)C1CN(Cc2cc(Oc3cnc(N4CCN(C)CC4)nc3)nc(-c3cc(Cl)cc(Cl)c3)c2)C1 (stereo not shown) [Example 127, 3-(1-((2-(3,5-dichlorophenyl)-6-((2-(4-methylpiperazin-1-yl)pyrimidin-5-yl)oxy)pyridin-4-yl)methyl)azetidin-3-yl)butanoic acid] | 501 | 8.8 | –
CN1CCN(c2ncc(Oc3cc(CN4CCC(OCC(=O)O)C4)cc(-c4cc(Cl)cc(Cl)c4)n3)cn2)CC1 (stereo not shown) [Example 128, 2-((1-((2-(3,5-dichlorophenyl)-6-((2-(4-methylpiperazin-1-yl)pyrimidin-5-yl)oxy)pyridin-4-yl)methyl)pyrrolidin-3-yl)oxy)acetic acid] | 631 | 7.9 | –
